# Experimental data: US20090029366A1 (priority 2007, published 2009)
# Target: T1, HCN3 channel (Homo sapiens, UniProt Q9P1Z3)
# T1 construct: expressed in transfected cells; host or cells: HEK-293H
# T1 sequence (Q9P1Z3 1-774): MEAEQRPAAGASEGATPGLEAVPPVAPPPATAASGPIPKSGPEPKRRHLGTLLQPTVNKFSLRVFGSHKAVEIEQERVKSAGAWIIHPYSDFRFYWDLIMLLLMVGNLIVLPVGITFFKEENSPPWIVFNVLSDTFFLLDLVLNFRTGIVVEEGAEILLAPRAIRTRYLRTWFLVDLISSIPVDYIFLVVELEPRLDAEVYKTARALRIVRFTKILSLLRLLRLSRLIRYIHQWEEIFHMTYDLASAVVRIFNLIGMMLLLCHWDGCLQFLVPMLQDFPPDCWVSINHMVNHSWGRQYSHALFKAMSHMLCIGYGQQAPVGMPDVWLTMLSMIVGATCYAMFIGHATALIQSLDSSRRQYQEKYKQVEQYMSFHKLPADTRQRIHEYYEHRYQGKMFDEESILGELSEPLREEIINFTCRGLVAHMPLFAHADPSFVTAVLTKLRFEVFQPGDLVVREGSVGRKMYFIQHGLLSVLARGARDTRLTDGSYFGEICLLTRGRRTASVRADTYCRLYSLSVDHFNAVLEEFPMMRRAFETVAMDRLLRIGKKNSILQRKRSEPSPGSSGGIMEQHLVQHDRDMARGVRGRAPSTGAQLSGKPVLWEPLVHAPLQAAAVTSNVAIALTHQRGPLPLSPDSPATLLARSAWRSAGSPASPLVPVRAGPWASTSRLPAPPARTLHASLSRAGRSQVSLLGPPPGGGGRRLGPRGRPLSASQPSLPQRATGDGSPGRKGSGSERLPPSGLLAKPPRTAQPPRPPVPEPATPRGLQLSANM
# Test: MPSD FLIPR/FLEX 96 well hyperpolarization assay, HCN3
# Assay type: cell-based
# Conditions: HCN3 channel expressing HEK-293H cells, ZD7288 30 μM (FIG. 7A)
# Description: The above-described assay was modified for use with the FLIPR®^96 or FLEX^96 96 well plate format. In brief, cells stably expressing HCN channels were plated at 40-80×10^3 cells/plate in 100-150 μl/well of DMEM supplemented with 10% fetal bovine serum, 1× NEAA, and 1× penicillin/streptomycin. Cells were cultured for 24-48 hours in a 5% CO2/air humidifiedincubator at 37° C. Cells were incubated in 30 μl/well of HBSS containing MPSD, as described above, for 15-45 minutes at room temperature.
# Membrane potentials were measured at room temperature (21°-23°) using a FLIPR® system or a FLEXSTATION® (Molecular Devices of Sunnydale, Calif.). Control cells were incubated in HBSS/MPSD without a test agent. For identification of HCN channel modulators, cells were incubated in HBSS/MPSD and the presence of a test agent as described in Examples 5 and 6 herein below. […]
# Cells were incubated in 30 μl HBSS supplemented with MPSD with or without 50 μM of the channel inhibitor ZD7288, dissolved in <1.0% dimethyl sulfoxide (DMSO) added to the HBSS solution. […] The change in fluorescence (ΔF) was measured for a total assay time of about 100 seconds. […]
# FIG. 6A depicts the whole-plate screenshot of the changes in fluorescence/membrane potential over time. FIG. 7A depicts the change in fluorescence (F) over time for control cells (upper trace) and for cells exposed to ZD7288 at a concentration of 30 μM (lower trace). […]
compound,measurement,value
CCN(c1ccccc1)c1cc(=NC)n(C)c(C)n1.Cl [ZD7288],blockade of hyperpolarization (change in fluorescence),effectively blocked hyperpolarization
